From patent US20230089247A1, “NOVEL COMPOUNDS SUITABLE FOR THE TREATMENT OF DYSLIPIDEMIA” (ZYDUS LIFESCIENCES LIMITED, priority 2019, published 2023) come the findings set out here.

The structures appear in SMILES notation.

The assay has as its target PCSK9 (Homo sapiens, UniProt Q8NBP7). Description: BODIPY-LDL uptake assay in HepG2 cells. Conditions: 5 μg/ml PCSK9, BODIPY-LDL. In kind it is cell-based. Here is the method: BODIPY-LDL Uptake Assay in HepG2 Cells.
An established assay for PCSK9 inhibition features uptake of fluorescently labeled LDL nanoparticles (BODIPY-LDL) by hepatocytes and uptake of the BODIPY-containing particles is maximized in the absence of PCSK9.
In the LDL uptake assay, HepG2 cells were seeded at a density of 6×10^4 cells/well in a 96-well plate. After 24 h, the test compounds at various concentrations were pre-incubated with 5 μg/ml PCSK9 in 0.2% DMSO for 60 min prior to the addition on to the cells. After 16 h the medium was removed and 1 μg/ml BODIPY-LDL (Invitrogen) in serum free media was added and incubated for 5 h. Then the cells were washed twice with 0.25% BSA in PBS. Then the fluorescence of the cells in PBS was measured using TECAN multimode reader (Excitation: 485 nm and Emission: 520 nm). The readings were taken in triplicate and the final values were normalized with the protein concentration from respective wells. The wells without test compound containing external PCSK9 is considered as zero uptake and the one without PCSK9 was considered as 100% uptake. The percentage increase in LDL uptake for the test compounds were calculated using these values.

Sequence of PCSK9 (Q8NBP7 153-692): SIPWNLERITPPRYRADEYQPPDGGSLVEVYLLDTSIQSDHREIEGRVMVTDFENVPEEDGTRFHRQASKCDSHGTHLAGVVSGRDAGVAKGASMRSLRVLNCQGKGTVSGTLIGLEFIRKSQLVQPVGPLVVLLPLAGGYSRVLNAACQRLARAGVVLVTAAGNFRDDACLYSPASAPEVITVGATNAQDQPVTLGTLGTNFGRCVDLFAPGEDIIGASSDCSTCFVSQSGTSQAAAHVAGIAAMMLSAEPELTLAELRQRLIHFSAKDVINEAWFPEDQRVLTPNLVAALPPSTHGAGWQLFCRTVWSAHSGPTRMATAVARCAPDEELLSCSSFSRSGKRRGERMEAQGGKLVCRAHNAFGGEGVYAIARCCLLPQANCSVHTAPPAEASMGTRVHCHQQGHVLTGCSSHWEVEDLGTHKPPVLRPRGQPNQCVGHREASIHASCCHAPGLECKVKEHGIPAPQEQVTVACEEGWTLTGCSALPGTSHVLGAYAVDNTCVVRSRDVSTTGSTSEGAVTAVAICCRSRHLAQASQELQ

As to `O=C(Nc1ccc(C2(O)COC2)cc1)N1CC2CN(c3ccc(C(F)(F)F)cc3)CC2C1` (stereo not drawn) [Example 75, N-(4-(3-hydroxyoxetan-3-yl)phenyl)-5-(4-(trifluoromethyl)phenyl) hexahydropyrrolo[3,4-c]pyrrole-2(1H)-carboxamide], the “% increase in LDL Uptake” value came to 20% (1 μM test compound), 38% (10 μM test compound) and 27% (30 μM test compound).

On to `O=C(O)COC1(c2ccc(C(=O)N3CC4CN(c5ccc(C(F)(F)F)cc5)CC4C3)cc2)COC1` (stereo not drawn) [Example 13, 2-((3-(4-(5-(4-(trifluoromethyl)phenyl)octahydropyrrolo[3,4-c]pyrrole-2-carbonyl)phenyl)oxetan-3-yl)oxy)acetic acid], for which the “% increase in LDL Uptake” value is reported as 29% (1 μM test compound), 43% (10 μM test compound) and 33% (30 μM test compound).

In the case of `O=C(c1ccc(C2(OCC3CC3)COC2)cc1)N1CC2CN(c3ccc(C(F)(F)F)cc3)CC2C1` (stereo not drawn) [Example 133, (4-(3-(cyclopropylmethoxy)oxetan-3-yl)phenyl)(5-(4-(trifluoromethyl)phenyl)hexahydropyrrolo[3,4-c]pyrrol-2(1H)-yl)methanone], the “% increase in LDL Uptake” value (1 μM test compound) stood at 22%, the “% increase in LDL Uptake” value (10 μM test compound) amounted to 28% and the “% increase in LDL Uptake” value (30 μM test compound) is recorded as 32%.

With `O=C(c1ccc(C2(O)COC2)cc1)N1CCN(c2ccc(C(F)(F)F)nc2)CC1` [Example 217, (4-(3-hydroxyoxetan-3-yl)phenyl)(4-(6-(trifluoromethyl)pyridin-3-yl)piperazin-1-yl) methanone], the “% increase in LDL Uptake” value runs as follows: (1 μM test compound) 0%; (10 μM test compound) 5%; (30 μM test compound) 128%.

For the compound `COC1(c2ccc(C(=O)N3CC4CN(c5ccc(C(F)(F)F)cn5)CC4C3)cc2)COC1` (stereo not drawn) [Example 209, (4-(3-methoxyoxetan-3-yl)phenyl)(5-(5-(trifluoromethyl)pyridin-2-yl)hexahydropyrrolo[3,4-c]pyrrol-2(1H)-yl)methanone], the “% increase in LDL Uptake” value by setting is: (1 μM test compound) 20%; (10 μM test compound) 137%; (30 μM test compound) 21%.

`COC1(c2ccc(NC(=O)N3CC4CN(c5ccc(C(F)(F)F)cc5)CC4C3)cc2)COC1` (stereo not drawn) [Example 74, N-(4-(3-methoxyoxetan-3-yl)phenyl)-5-(4-(trifluoromethyl)phenyl) hexahydropyrrolo[3,4-c]pyrrole-2(1H)-carboxamide]: the “% increase in LDL Uptake” value runs as follows: (1 μM test compound) 34%; (10 μM test compound) 42%; (30 μM test compound) 100%.

As to `O=C(c1ccc(C2(O)COC2)cc1)N1CCC2(CC1)CCN(c1ccc(C(F)(F)F)cc1)CC2` [Example 99, (4-(3-hydroxyoxetan-3-yl)phenyl)(9-(4-(trifluoromethyl)phenyl)-3,9-diazaspiro[5.5]undecan-3-yl)methanone], the “% increase in LDL Uptake” value (1 μM test compound) was determined as 50%, the “% increase in LDL Uptake” value (10 μM test compound) was 0% and the “% increase in LDL Uptake” value (30 μM test compound) is 0%.

For `COc1ccc(C2CCN(C(=O)c3ccc(C4(O)COC4)cc3)CC2)cc1Cl` [Example 26, (4-(3-chloro-4-methoxyphenyl)piperidin-1-yl)(4-(3-hydroxyoxetan-3-yl)phenyl)methanone], the “% increase in LDL Uptake” value runs as follows: (1 μM test compound) 15%; (10 μM test compound) 21%; (30 μM test compound) 33%.

Regarding `O=C(c1ccc(C2(O)COC2)cc1)N1Cc2cn(-c3ccc(C(F)(F)F)cc3)cc2C1` [Example 93, (4-(3-hydroxyoxetan-3-yl)phenyl)(5-(4-(trifluoromethyl)phenyl)-3,5-dihydropyrrolo[3,4-c]pyrrol-2(1H)-yl)methanone], the “% increase in LDL Uptake” value (1 μM test compound) is given as 0%, the “% increase in LDL Uptake” value (10 μM test compound) worked out at 90% and the “% increase in LDL Uptake” value (30 μM test compound) is reported as 144%.

`O=C(c1ccc(C2(O)COC2)cc1)N1CCC(c2ccc(OC(F)(F)F)cc2)CC1` [Example 22, (4-(3-hydroxyoxetan-3-yl)phenyl)(4-(4-(trifluoromethoxy)phenyl)piperidin-1-yl)methanone]: the “% increase in LDL Uptake” value is recorded as 0% (1 μM test compound), 19% (10 μM test compound) and 14% (30 μM test compound).

Consider `O=C(c1ccc(C2(O)CCNCC2)cc1)N1CCC(c2ccc(C(F)(F)F)cc2)CC1` [Example 141, (4-(4-hydroxypiperidin-4-yl)phenyl)(4-(4-(trifluoromethyl)phenyl)piperidin-1-yl)methanone], for which the “% increase in LDL Uptake” value by setting is: (1 μM test compound) 0%; (10 μM test compound) 0%; (30 μM test compound) 28%.

With `CCOC1(c2cccc(C(=O)N3CC4CN(c5ccc(C(F)(F)F)cc5)CC4C3)c2)COC1` (stereo not drawn) [Example 178, (3-(3-ethoxyoxetan-3-yl)phenyl)(5-(4-(trifluoromethyl)phenyl)hexahydropyrrolo[3,4-c]pyrrol-2(1H)-yl)methanone], the “% increase in LDL Uptake” value by setting is: (1 μM test compound) 0%; (10 μM test compound) 51%; (30 μM test compound) 47%.

`COC1(c2ccc(C(=O)N3CC4=C(C3)CN(c3ccc(C(F)(F)F)cc3)C4)cc2)COC1` [Example 202, (4-(3-methoxyoxetan-3-yl)phenyl)(5-(4-(trifluoromethyl)phenyl)-3,4,5,6-tetrahydropyrrolo[3,4-c]pyrrol-2(1H)-yl)methanone]: the “% increase in LDL Uptake” value is, setting by setting: (1 μM test compound) 16%; (10 μM test compound) 0%; (30 μM test compound) 36%.

As for `N#CC1(c2ccc(C(F)(F)F)cc2)CCN(C(=O)c2ccc(C3(O)COC3)cc2)CC1` [Example 116, 1-(4-(3-hydroxyoxetan-3-yl)benzoyl)-4-(4-(trifluoromethyl)phenyl)piperidine-4-carbonitrile], the “% increase in LDL Uptake” value runs as follows: (1 μM test compound) 7%; (10 μM test compound) 35%; (30 μM test compound) 98%.

Consider `O=C(c1ccc(C2(O)COC2)cc1)N1CCC2(CCN(c3ccc(C(F)(F)F)cc3)CC2)C1` [Example 186, (4-(3-hydroxyoxetan-3-yl)phenyl)(8-(4-(trifluoromethyl)phenyl)-2,8-diazaspiro[4.5]decan-2-yl)methanone], for which the “% increase in LDL Uptake” value reads like this: (1 μM test compound) 17%; (10 μM test compound) 73%; (30 μM test compound) 31%.

As to `O=C(c1ccc(C2(O)COC2)cc1)N1CCc2cc(-c3ccc(C(F)(F)F)cc3)ccc21` [Example 107, (4-(3-hydroxyoxetan-3-yl)phenyl)(5-(4-(trifluoromethyl)phenyl)indolin-1-yl)methanone], the “% increase in LDL Uptake” value is on record as 27% (1 μM test compound), 0% (10 μM test compound) and 0% (30 μM test compound).

As for `CCOC1(c2ccc(C(=O)N3CC4CN(c5ccc(C(F)(F)F)cc5)CC4C3)cc2)CSC1` (stereo not drawn) [Example 150, (4-(3-ethoxythietan-3-yl)phenyl)(5-(4-(trifluoromethyl)phenyl)hexahydropyrrolo[3,4-c]pyrrol-2(1H)-yl)methanone], the “% increase in LDL Uptake” value stood at 0% (1 μM test compound), 5% (10 μM test compound) and 25% (30 μM test compound).

As to `COC(=O)c1ccc(C2(O)CC3CN(C(=O)c4ccc(C5(O)COC5)cc4)CC3C2)cc1` (stereo not drawn) [Example 198, Methyl 4-(5-hydroxy-2-(4-(3-hydroxyoxetan-3-yl)benzoyl)octahydrocyclopenta[c]pyrrol-5-yl)benzoate], the “% increase in LDL Uptake” value is given as −8% (1 μM test compound), 25% (10 μM test compound) and 3% (30 μM test compound).
